Target: T1, T315I mutant form of BCR-ABL in Ba/F3 cells (Homo sapiens, UniProt P00519, T315I)
T1 construct: expressed in transfected cells; host or cells: Ba/F3 cells; the other entry of the earlier key: BCR (P11274, Breakpoint cluster region protein)
T1 sequence (P00519 242-493 T315I limits assumed): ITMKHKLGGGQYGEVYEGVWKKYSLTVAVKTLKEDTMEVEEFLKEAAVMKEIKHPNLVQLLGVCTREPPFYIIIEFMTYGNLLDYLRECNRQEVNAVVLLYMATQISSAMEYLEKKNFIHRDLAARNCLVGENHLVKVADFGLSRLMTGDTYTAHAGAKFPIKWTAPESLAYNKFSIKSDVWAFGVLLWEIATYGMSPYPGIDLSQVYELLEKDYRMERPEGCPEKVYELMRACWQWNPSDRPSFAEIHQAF
Assay: Abl_T315I p-ELISA Cellular Assay (BCR-ABL phospho-ELISA)
Format: cell-based
Details: 60-120 minutes incubation
Procedure: Cells (Ba/F3 cells transfected with WT BCR-ABL, other kinases, or T315I, Y253F, M351T, E255K, or other mutant forms of BCR-ABL) were grown in the absence of IL-3 at least ½ week before the assay. The day before assay, the cells were fed with fresh media so that at the time of assay the cells were in log phase. Ba/F3 cells that had been grown in the absence of IL-3 for at least ½ week were resuspended in RPMI 1640 so that each well of a 96-well plate would contain approximately 200,000 cells. Cells were distributed in a 96-well plate containing serially diluted concentrations of test compounds. Cells were typically incubated with or without test compounds for 60-120 minutes at 5% CO2, 37° C. The incubation was performed with or without other additives such as 10% FCS or 50% human plasma. After incubation of compounds, lysis buffer was added and incubated for 10-15 minutes; the lysate was cleared by centrifugation.
To make the ELISA plate, commercially available Anti-ABL antibodies (e.g. (Ab-3, Calbiochem OP20) were prepared at a concentration of 0.125 μg/ml in coating buffer (0.1M Na-carbonate, pH 9.5), and plated at 10 ml per plate (12.5 μl 100 μg/ml Ab/10 ml). In a high binding multi-well plate, 100 μl Ab in coating buffer were added to each well, and each plate was covered with a plate seal and incubated overnight at 4° C.
Excess antibody was removed and the ELISA plate was washed 3-4 times with 200 μl of wash buffer (0.05% Tween in PBS, pH 7.4). 150 μl of lysate (see above) were transferred to the ELISA plate. Plates were sealed and incubated 2 hours at room temperature. The detection antibody (e.g. HRP conjugated anti-pTyr or unconjugated α-p-Y 4G10, Upstate) was prepared in assay diluent. The antibody was diluted 1:1000 (stock=2 μg/μl, 200 μg in 100 μl; f.c.=2 μg/ml) in assay diluent and 10 ml of diluted antibody per plate were added. The lysate was removed from the ELISA plates, and wells were washed four times with 200 μl of wash buffer per well. 100 μl of detection antibody was added to each well; the plate was covered, and incubated 1 hr at room temperature (21° C.). Excess detection antibody was removed from the ELISA plates, and the wells were washed four times with 200 μl of wash buffer per well.
If necessary, (i.e. for unconjugated anti-pTyr antibody) secondary antibody (goat anti-rabbit HRP) was diluted 1:3000 in assay diluent (3.33 μl per 10 ml diluent) and added at 10 ml of diluted antibody per plate. Excess secondary antibody was removed from the ELISA plate, and the plate was washed four times with 200 μl per well of wash buffer.
Substrate Reagent A and Substrate Reagent B (Pierce Cat#37070 SuperSignal ELISA Pico Chemiluminescent Substrate) were added immediately before use (10 ml resultant solution per plate). 100 μl substrate were added per well, mixed for 1 minute, and chemiluminescent signal was measured with a luminometer.

IC50 | Structure (SMILES)
100 to 1000 nM | COc1ccccc1-c1c[nH]c2ncc(-c3cc[nH]c(=O)c3)cc12 [AE9]
< 100 nM | N#Cc1cc(-c2cnc3[nH]cc(-c4ccc5[nH]ccc5c4)c3c2)ccc1O [AE20]
100 to 1000 nM | Oc1cccc(-c2cnc3[nH]cc(-c4ccc(O)c(F)c4)c3c2)c1 [AE48]
< 100 nM | COc1cc(-c2cnc3[nH]cc(-c4ccc(O)cc4)c3c2)ccc1O [AE58]
< 100 nM | COc1cc(-c2cnc3[nH]cc(-c4ccccc4OC)c3c2)ccc1O [AE64]

Further lines, the molecule ahead of its results:

Structure (SMILES) | IC50
CNC(=O)c1cncc(-c2cnc3[nH]cc(-c4ccccc4OC)c3c2)c1 [AE1] | < 100 nM
CNC(=O)c1cc(-c2cnc3[nH]cc(-c4ccccc4OC)c3c2)cs1 [AE2] | 100 to 1000 nM
COc1ccccc1-c1c[nH]c2ncc(-c3csc(C(=O)N(C)C)c3)cc12 [AE3] | < 100 nM
COc1ccccc1-c1c[nH]c2ncc(-c3ccc(S(N)(=O)=O)s3)cc12 [AE11] | 100 to 1000 nM
COc1ccccc1-c1c[nH]c2ncc(-c3cccc(S(C)(=O)=O)c3)cc12 [AE13] | 100 to 1000 nM
O=C(c1cncc(-c2cnc3[nH]cc(-c4ccc5cc[nH]c5c4)c3c2)c1)N1CCOCC1 [AE14] | < 100 nM
c1cc2cc(-c3c[nH]c4ncc(-c5ccc6[nH]cnc6c5)cc34)ccc2[nH]1 [AE22] | 100 to 1000 nM
COc1ccccc1-c1c[nH]c2ncc(-c3ccc(O)c(CN4CCCN(C)CC4)c3)cc12 [AE41] | < 100 nM
COc1ccccc1-c1c[nH]c2ncc(-c3cccc(C(=N)N4CCCCC4)c3)cc12 [AE42] | < 100 nM
Oc1cccc(-c2cnc3[nH]cc(-c4ccn[nH]4)c3c2)c1 [AE49] | 100 to 1000 nM
Nc1nc(-c2c[nH]c3ncc(-c4ccc5[nH]ccc5c4)cc23)cs1 [AE55] | < 100 nM

Reference: patent US7709645B2, “Pyrrolo-pyridine kinase modulators” (SGX Pharmaceuticals, Inc., priority 2004, dated 2010)
